Measurements: ChEMBL document CHEMBL1124752, “Cyclobut-A and cyclobut-G: broad-spectrum antiviral agents with potential utility for the therapy of AIDS” (J Med Chem, 1990)
Values after ≈ are worked out from the molar mass of the structure shown.

Columns and labels:
[1] = system: Human immunodeficiency virus 1; test: Tested for the determination of percentage protection at 2 uM concentrations against HIV-1 in ATH8 Cells; format: functional
[2] = system: Human immunodeficiency virus 1; test: Tested for the determination of percentage toxicity at 10 uM concentrations against HIV-1 in ATH8 Cells; format: functional
[3] = system: Human immunodeficiency virus 1; test: Tested for the determination of percentage toxicity at 100 uM concentrations against HIV-1 in ATH8 Cells; format: functional
[4] = system: Human immunodeficiency virus 1; test: Tested for the determination of percentage toxicity at 200 uM concentrations against HIV-1 in ATH8 Cells; format: functional
[5] = system: Human immunodeficiency virus 1; test: Tested for the determination of percentage protection at 200 uM concentrations against HIV-1 in ATH8 Cells; format: functional
[6] = system: Human immunodeficiency virus 1; test: Tested for the determination of percentage protection at 100 uM concentrations against HIV-1 in ATH8 Cells; format: functional
[7] = system: Human immunodeficiency virus 1; test: Tested for the determination of percentage protection at 10 uM concentrations against HIV-1 in ATH8 Cells; format: functional
Raji = test: Tested for the inhibition of diffuse early antigen production assayed by immunofluorescent monoclonal antibody in Raji cells; format: functional; conditions: Homo sapiens
Human alphaherpesvirus 2 [8] = test: Tested for mean day to death of nonsurvivors against HSV-2 encephalitis in mice at 31.2 mg/kg/day; format: functional, herpes simplex virus
Human betaherpesvirus 5 [9] = test: In vitro antiviral activity tested against herpesvirus, HCMV, EC strain by plaque reduction assay in human foreskin fibroblasts; format: functional
[10] = system: Human immunodeficiency virus 1; test: Tested for the determination of percentage protection at 100 uM against HIV-1 in ATH8 cells; format: functional, ATH-8
Human alphaherpesvirus 1 [11] = test: Tested for mean day to death of nonsurvivors against HSV-1 infection in mice at 4.7 mg/kg/day; format: functional, herpes simplex virus
[12] = system: Human immunodeficiency virus 1; test: Tested for the determination of percentage protection at 1 uM against HIV-1 in ATH8 cells; format: functional, ATH-8
Human alphaherpesvirus 2 [13] = test: Number of survivors per number of HSV-2 infected mice treated with 31.2 mg/Kg/day; 4/10; format: functional, herpes simplex virus
Human alphaherpesvirus 2 [14] = test: Tested for mean day to death of nonsurvivors against HSV-2 encephalitis in mice at 7.8 mg/kg/day; format: functional, herpes simplex virus
Human alphaherpesvirus 1 [15] = test: Number of survivors per number of HSV-1 infected mice treated with 1.2 mg/kg/day; 4/10; format: functional, herpes simplex virus
Human alphaherpesvirus 3 [16] = test: In vitro antiviral activity tested against herpesvirus, VZV, Ellen strain by plaque reduction assay in human foreskin fibroblasts; format: functional
Human betaherpesvirus 5 [17] = test: In vitro antiviral activity tested against herpesvirus, HCMV, AD169 strain by plaque reduction assay in human foreskin fibroblasts; format: functional
Murid betaherpesvirus 1 [18] = test: Number of survivors per number of systemic MCMV infected mice treated with 3.8 mg/kg/day; 7/15; format: functional
[19] = system: Human immunodeficiency virus 1; test: Tested for the determination of percentage protection at 50 uM against HIV-1 in ATH8 cells; format: functional, ATH-8
Murid betaherpesvirus 1 [20] = test: In vitro antiviral activity tested against herpesvirus, MCMV, Smith strain by plaque reduction assay in mouse embryo fibroblasts; format: functional
[21] = system: Human immunodeficiency virus 1; test: Tested for the determination of percentage protection at 10 uM against HIV-1 in ATH8 cells; format: functional, ATH-8
Human alphaherpesvirus 2 [22] = test: Tested for mean day to death of nonsurvivors against HSV-2 encephalitis in mice at 125 mg/kg/day; format: functional, herpes simplex virus
Human betaherpesvirus 5 [23] = test: In vitro antiviral activity tested against herpesvirus, HCMV, LA strain by plaque reduction assay in human foreskin fibroblasts; format: functional
Human alphaherpesvirus 2 [24] = test: Tested for the effective dose required to inhibit HSV-2 encephalitis in infected mice; format: functional, herpes simplex virus
Murid betaherpesvirus 1 [25] = test: Tested for mean day to death of nonsurvivors against systemic MCMV infection in mice at 100 mg/kg/day; format: functional
Murid betaherpesvirus 1 [26] = test: Tested for mean day to death of nonsurvivors against systemic MCMV infection in mice at 3.8 mg/kg/day; format: functional
Human betaherpesvirus 5 [27] = test: In vitro antiviral activity tested against herpesvirus, HCMV, Davis strain by plaque reduction assay in human foreskin fibroblasts; format: functional
[28] = system: Human immunodeficiency virus 1; test: Tested for the determination of percentage toxicity at 1 uM against HIV-1 in ATH8 cells; format: organism-based; conditions: human immunodeficiency virus 1, ath-8, 1 µM
Human alphaherpesvirus 2 [29] = test: In vitro antiviral activity tested against herpesvirus, HSV-2, JEN strain by plaque reduction assay in human foreskin fibroblasts; format: functional
Human alphaherpesvirus 3 [30] = test: In vitro antiviral activity tested against herpesvirus, VZV, OKA strain by plaque reduction assay in human foreskin fibroblasts; format: functional
Murid betaherpesvirus 1 [31] = test: Tested for mean day to death of nonsurvivors against systemic MCMV infection in mice at 33.4 mg/kg/day; format: functional
[32] = system: Human immunodeficiency virus 1; test: Tested for the determination of percentage toxicity at 100 uM against HIV-1 in ATH8 cells; format: organism-based; conditions: human immunodeficiency virus 1, ath-8, 100 µM
Murid betaherpesvirus 1 [33] = test: Number of survivors per number of systemic MCMV infected mice treated with 33.4 mg/kg/day; 13/15; format: functional
[34] = system: Human immunodeficiency virus 1; test: Tested for the determination of percentage toxicity at 10 uM against HIV-1 in ATH8 cells; format: organism-based; conditions: human immunodeficiency virus 1, ath-8, 10 µM
Human alphaherpesvirus 2 [35] = test: Number of survivors per number of HSV-2 infected mice treated with 125 mg/kg/day; 8/10; format: functional, herpes simplex virus
Human alphaherpesvirus 1 [36] = test: In vitro antiviral activity tested against herpesvirus, HSV-1, E-377 strain by plaque reduction assay in human foreskin fibroblasts; format: functional
Human alphaherpesvirus 2 [37] = test: Number of survivors per number of HSV-2 infected mice treated with 7.8 mg/Kg/day; 5/10; format: functional, herpes simplex virus
Human alphaherpesvirus 2 [38] = test: In vitro antiviral activity tested against herpesvirus, HSV-2, MS strain by plaque reduction assay in human foreskin fibroblasts; format: functional
Human alphaherpesvirus 2 [39] = test: In vitro antiviral activity tested against herpesvirus, HSV-2, X-79 strain by plaque reduction assay in human foreskin fibroblasts; format: functional
Human alphaherpesvirus 1 [40] = test: Tested for mean day to death of nonsurvivors against HSV-1 infection in mice at 1.2 mg/kg/day; format: functional, herpes simplex virus
[41] = system: Human immunodeficiency virus 1; test: Tested for the determination of percentage toxicity at 50 uM against HIV-1 in ATH8 cells; format: organism-based; conditions: human immunodeficiency virus 1, ath-8, 50 µM
Murid betaherpesvirus 1 [42] = test: Number of survivors per number of systemic MCMV infected mice treated with 100 mg/kg/day; 13/15; format: functional
Murid betaherpesvirus 1 [43] = test: Tested for the effective dose required to inhibit systemic MCMV in infected mice; format: functional
Human alphaherpesvirus 1 [44] = test: Number of survivors per number of HSV-1 infected mice treated with 4.7 mg/kg/day; 7/10; format: functional, herpes simplex virus
Human alphaherpesvirus 1 [45] = test: Tested for the effective dose required to inhibit HSV-1 in infected mice; format: functional, herpes simplex virus
Homo sapiens = organism: Homo sapiens; test: The drug concentration was determined to reduce proliferation of human foreskin fibroblasts to 50% of untreated controls in proliferation assay; format: functional; conditions: read-out: ID50 (the source's name)
Human alphaherpesvirus 1 [46] = test: Number of survivors per number of HSV-1 infected mice treated with 18.7 mg/kg/day; 10/10; format: functional, herpes simplex virus
Murid betaherpesvirus 1 [47] = test: Number of survivors per number of systemic MCMV infected mice treated with 11.2 mg/kg/day; 9/15; format: functional
Human alphaherpesvirus 2 [48] = test: In vitro antiviral activity tested against herpesvirus, HSV-2, HEET strain by plaque reduction assay in human foreskin fibroblasts; format: functional
Murid betaherpesvirus 1 [49] = test: Tested for mean day to death of nonsurvivors against systemic MCMV infection in mice at 11.2 mg/kg/day; format: functional
[50] = system: Human immunodeficiency virus 1; test: Tested for the determination of percentage protection atuM against HIV-1 in ATH8 cells; format: functional, ATH-8
[51] = system: Human immunodeficiency virus 1; test: Tested for the determination of percentage protection at 10 uM against HIV-1 in ATH8; format: functional
[52] = system: Human immunodeficiency virus 1; test: Tested for the determination of percentage toxicity at 500 uM against HIV-1 in ATH8 cells; format: organism-based; conditions: human immunodeficiency virus 1, ath-8, 500 µM
[53] = system: Human immunodeficiency virus 1; test: Tested for the determination of percentage toxicity at 2 uM against HIV-1 in ATH8 cells; format: organism-based; conditions: human immunodeficiency virus 1, ath-8, 2 µM
[54] = system: Human immunodeficiency virus 1; test: Tested for the determination of percentage protection atuM against HIV-1 in ATH8 Cells; format: functional
[55] = read-out: ED50 (the source's name)
[56] = read-out: ID50 (the source's name)

Compound `Nc1ncnc2c1ncn2[C@H]1CC[C@@H](CO)O1` has a Protection [1] of 69%, a Cytotoxicity [2] of 0% and a Cytotoxicity [3] of 8%. The Cytotoxicity [4] was 0%, the Protection [5] was 99% and the Protection [6] was 100%. The Protection [7] was 99%.

`Nc1nc(O)c2ncn([C@@H]3C[C@H](CO)C3CO)c2n1` (some centres not stated) showed an EC50 (Raji; [55]) of 0.01 µg/mL (≈ 0.0377 µM), an IC50 (Raji; [56]) of 94 µg/mL (≈ 354 µM) and an MDD (Human alphaherpesvirus 2 [8]) of 11.2. The EC50 (Human betaherpesvirus 5 [9]; [55]) was 3.9 µg/mL (≈ 14.7 µM), the IC50 (Human betaherpesvirus 5 [9]; [56]) was > 100 µg/mL and the Protection [10] was 11%. The MDD (Human alphaherpesvirus 1 [11]) was 9.3, the Protection [12] was 29% and the Survivors / treated (Human alphaherpesvirus 2 [13]) was 4. For the same compound, the MDD (Human alphaherpesvirus 2 [14]) was 12.1, the Survivors / treated (Human alphaherpesvirus 1 [15]) was 4 and the EC50 (Human alphaherpesvirus 3 [16]; [55]) was 0.4 µg/mL (≈ 1.51 µM). The IC50 (Human alphaherpesvirus 3 [16]; [56]) was > 100 µg/mL, the EC50 (Human betaherpesvirus 5 [17]; [55]) was 6.2 µg/mL (≈ 23.4 µM) and the IC50 (Human betaherpesvirus 5 [17]; [56]) was > 100 µg/mL. The Survivors / treated (Murid betaherpesvirus 1 [18]) was 7, the Protection [19] was 46% and the EC50 (Murid betaherpesvirus 1 [20]; [55]) was 0.1 µg/mL (≈ 0.377 µM). For the same compound, the IC50 (Murid betaherpesvirus 1 [20]; [56]) was > 100 µg/mL, the Protection [21] was 100% and the MDD (Human alphaherpesvirus 2 [22]) was 16.3. For the same compound, the EC50 (Human betaherpesvirus 5 [23]; [55]) was 1.2 µg/mL (≈ 4.52 µM), the IC50 (Human betaherpesvirus 5 [23]; [56]) was > 100 µg/mL and the ED50 (Human alphaherpesvirus 2 [24]) was 39.8 mg/kg/day. For the same compound, the MDD (Murid betaherpesvirus 1 [25]) was 3.5, the MDD (Murid betaherpesvirus 1 [26]) was 5.9 and the EC50 (Human betaherpesvirus 5 [27]; [55]) was 4.9 µg/mL (≈ 18.5 µM). For the same compound, the IC50 (Human betaherpesvirus 5 [27]; [56]) was > 100 µg/mL, the Cytotoxity [28] was 8% and the EC50 (Human alphaherpesvirus 2 [29]; [55]) was 0.05 µg/mL (≈ 0.188 µM). The IC50 (Human alphaherpesvirus 2 [29]; [56]) was > 100 µg/mL, the EC50 (Human alphaherpesvirus 3 [30]; [55]) was 0.4 µg/mL (≈ 1.51 µM) and the IC50 (Human alphaherpesvirus 3 [30]; [56]) was > 100 µg/mL. The MDD (Murid betaherpesvirus 1 [31]) was 4.5, the Cytotoxity [32] was 83% and the Survivors / treated (Murid betaherpesvirus 1 [33]) was 13. The Cytotoxity [34] was 0%, the Survivors / treated (Human alphaherpesvirus 2 [35]) was 8 and the EC50 (Human alphaherpesvirus 1 [36]; [55]) was 0.05 µg/mL (≈ 0.188 µM). For the same compound, the IC50 (Human alphaherpesvirus 1 [36]; [56]) was > 100 µg/mL, the Survivors / treated (Human alphaherpesvirus 2 [37]) was 5 and the EC50 (Human alphaherpesvirus 2 [38]; [55]) was 0.07 µg/mL (≈ 0.264 µM). For the same compound, the IC50 (Human alphaherpesvirus 2 [38]; [56]) was > 100 µg/mL, the EC50 (Human alphaherpesvirus 2 [39]; [55]) was 0.06 µg/mL (≈ 0.226 µM) and the IC50 (Human alphaherpesvirus 2 [39]; [56]) was > 100 µg/mL. For the same compound, the MDD (Human alphaherpesvirus 1 [40]) was 9.3, the Cytotoxity [41] was 41% and the Survivors / treated (Murid betaherpesvirus 1 [42]) was 13. The ED50 (Murid betaherpesvirus 1 [43]) was 2.2 mg/kg/day, the Survivors / treated (Human alphaherpesvirus 1 [44]) was 7 and the ED50 (Human alphaherpesvirus 1 [45]) was 1.9 mg/kg/day. It also gave an IC50 (Homo sapiens) of 27 µg/mL (≈ 102 µM), a Survivors / treated (Human alphaherpesvirus 1 [46]) of 10 and a Survivors / treated (Murid betaherpesvirus 1 [47]) of 9. For the same compound, the EC50 (Human alphaherpesvirus 2 [48]; [55]) was 0.07 µg/mL (≈ 0.264 µM), the IC50 (Human alphaherpesvirus 2 [48]; [56]) was > 100 µg/mL and the MDD (Murid betaherpesvirus 1 [49]) was 5.8.

`Nc1nc2c(ncn2[C@H]2CC[C@@H](CO)O2)c(=O)[nH]1` showed a Protection [10] of 99%, a Protection [50] of 48% and a Protection [51] of 100%. It also gave a Cytotoxicity [52] of 50%, a Cytotoxicity [32] of 4% and a Cytotoxicity [34] of 0%. For the same compound, the Cytotoxicity [53] was 0% and the Protection [54] was 54%.
